From ChEMBL document CHEMBL4665787, “Bifunctional and Unusual Amino Acid β- or γ-Ester Prodrugs of Nucleoside Analogues for Improved Affinity to ATB and Enhanced Metabolic Stability: An Application to Floxuridine” (J Med Chem, 2020)
Activity calls are given as the source filed them. No cut-off for these calls is given here.

Key:
[1] = molecular target: T1, Sodium- and chloride-dependent neutral and basic amino acid transporter B(0+) (Homo sapiens, UniProt Q9UN76); test: Substrate activity at SLC6A14 (unknown origin) expressed in Xenopus laevis oocytes assessed as inhibition of glycine uptake incubated for 10 mins by HPLC/MS/MS analysis; format: cell-based, Oocyte
T1 sequence (Q9UN76 whole entry): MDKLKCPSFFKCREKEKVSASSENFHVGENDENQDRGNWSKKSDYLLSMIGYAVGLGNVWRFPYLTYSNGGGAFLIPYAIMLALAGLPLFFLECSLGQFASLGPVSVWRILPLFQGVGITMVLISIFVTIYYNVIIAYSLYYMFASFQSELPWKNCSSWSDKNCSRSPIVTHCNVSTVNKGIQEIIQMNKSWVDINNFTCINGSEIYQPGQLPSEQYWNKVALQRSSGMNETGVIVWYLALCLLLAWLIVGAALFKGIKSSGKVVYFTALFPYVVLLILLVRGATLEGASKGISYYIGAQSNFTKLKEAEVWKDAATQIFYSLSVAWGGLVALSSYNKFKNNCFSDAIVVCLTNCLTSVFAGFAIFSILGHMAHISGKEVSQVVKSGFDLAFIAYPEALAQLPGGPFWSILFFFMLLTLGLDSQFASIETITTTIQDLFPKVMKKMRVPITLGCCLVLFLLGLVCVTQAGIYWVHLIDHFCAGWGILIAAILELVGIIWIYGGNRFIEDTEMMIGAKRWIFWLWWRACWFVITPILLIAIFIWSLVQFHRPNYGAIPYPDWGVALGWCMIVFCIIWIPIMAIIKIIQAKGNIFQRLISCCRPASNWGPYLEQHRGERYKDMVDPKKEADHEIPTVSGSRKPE

[2] = molecular target: T1, Sodium- and chloride-dependent neutral and basic amino acid transporter B(0+); test: Substrate activity at SLC6A14 (unknown origin) expressed in Xenopus laevis oocytes assessed as ABT0+ mediated drug uptake at 0.5 mM incubated for 10 mins by HPLC analysis; format: ADME, cell-based; settings: oocyte, 500 µM
[3] = Drug uptake in Xenopus laevis oocytes at 0.5 mM incubated for 10 mins by HPLC analysis; format: ADME, cell-based; settings: oocyte, 500 µM
[4] = molecular target: T2, Solute carrier family 15 member 1 (Homo sapiens, UniProt P46059); test: Substrate activity at PEPT1 (unknown origin) expressed in MDCK cells assessed as inhibition of gly-sar uptake incubated for 10 mins by HPLC/MS/MS analysis; format: cell-based
T2 sequence (P46059 whole entry): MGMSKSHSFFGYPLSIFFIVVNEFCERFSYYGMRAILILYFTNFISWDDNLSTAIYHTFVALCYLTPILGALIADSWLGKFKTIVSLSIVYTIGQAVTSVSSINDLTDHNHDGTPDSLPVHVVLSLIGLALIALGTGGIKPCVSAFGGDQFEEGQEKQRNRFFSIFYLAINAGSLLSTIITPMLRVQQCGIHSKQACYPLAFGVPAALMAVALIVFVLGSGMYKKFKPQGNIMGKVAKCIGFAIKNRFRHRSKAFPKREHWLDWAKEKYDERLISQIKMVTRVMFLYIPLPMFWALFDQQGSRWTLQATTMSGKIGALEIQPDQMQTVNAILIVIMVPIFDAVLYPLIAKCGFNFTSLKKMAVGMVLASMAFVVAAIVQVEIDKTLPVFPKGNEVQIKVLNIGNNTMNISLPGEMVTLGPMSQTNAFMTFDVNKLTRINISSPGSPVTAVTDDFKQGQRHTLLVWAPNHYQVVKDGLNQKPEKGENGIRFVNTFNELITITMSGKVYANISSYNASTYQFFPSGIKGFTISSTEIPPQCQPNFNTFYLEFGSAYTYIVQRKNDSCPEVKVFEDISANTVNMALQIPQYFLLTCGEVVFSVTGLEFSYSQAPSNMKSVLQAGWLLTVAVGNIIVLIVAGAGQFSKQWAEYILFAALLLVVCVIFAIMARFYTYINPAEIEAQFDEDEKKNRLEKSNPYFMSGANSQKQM

[5] = molecular target: T2, Solute carrier family 15 member 1; test: Substrate activity at PEPT1 (unknown origin) expressed in MDCK cells assessed as PEPT1 mediated drug uptake at 0.5 mM incubated for 10 mins by HPLC analysis; format: ADME, cell-based; settings: 500 µM
[6] = Drug uptake in MDCK cells incubated for 10 mins by HPLC analysis; format: ADME, cell-based, Canis lupus familiaris; settings: dog, 500 µM, dose 0.5 mM
[7] = Selectivity ratio of substrate activity at SLC6A14 (unknown origin) expressed in Xenopus laevis oocytes assessed as ABT0+ mediated drug uptake to drug uptake in Xenopus laevis oocytes; design: species or system Oocyte
[8] = Selectivity ratio of substrate activity at PEPT1 (unknown origin) expressed in MDCK cells assessed as PEPT1 mediated drug uptake to drug uptake in MDCK cells
[9] = molecular target: T3, Sodium- and chloride-dependent neutral and basic amino acid transporter B(0+) (Homo sapiens) (UniProt Q9UN76); test: Substrate activity at SLC6A14 (unknown origin) expressed in Xenopus laevis oocytes assessed as inhibition of drug uptake at 0.5 mM incubated for 10 mins in presence of glycine by HPLC analysis relative to control; format: cell-based; settings: Oocyte
T3 sequence (whole entry): T1 sequence (Q9UN76 whole entry)

[10] = molecular target: T3, Sodium- and chloride-dependent neutral and basic amino acid transporter B(0+) (Homo sapiens); test: Substrate activity at SLC6A14 (unknown origin) expressed in Xenopus laevis oocytes assessed as increase in ABT0+ mediated drug uptake at 1 mM in presence of Na+ ion by HPLC analysis; format: cell-based; settings: Oocyte
[11] = molecular target: T3, Sodium- and chloride-dependent neutral and basic amino acid transporter B(0+) (Homo sapiens); test: Substrate activity at SLC6A14 (unknown origin) expressed in Xenopus laevis oocytes assessed as increase in ABT0+ mediated drug uptake at 1 mM in presence of Cl- ion by HPLC analysis; format: cell-based; settings: Oocyte
[12] = Half life of compound in PBS buffer at pH 7.4 at 200 uM by HPLC analysis; format: physicochemical
[13] = Half life in rat plasma at 200 uM measured up to 120 mins by HPLC-MS/MS analysis; format: ADME, cell-free
thymidine phosphorylase = test: Half life of compound in thymidine phosphorylase buffer at 300 uM by HPLC analysis; format: physicochemical
[14] = Half life of compound in human ZR-75-1 cell homogenate; format: ADME, tissue-based
[15] = Half life of compound in human MIA PaCa-2 cell homogenate; format: ADME, tissue-based
[16] = Half life of compound in human MDA-MB-231 cell homogenate; format: ADME, tissue-based
ZR-75-1 = test: Potency index, ratio of FUdR GI50 to test compound GI50 for growth inhibition of human ZR-75-1 cells; format: functional
MIA PaCa-2 = test: Potency index, ratio of FUdR GI50 to test compound GI50 for growth inhibition of human MIA-PaCa-2 cells; format: functional
MDA-MB-231 = test: Potency index, ratio of FUdR GI50 to test compound GI50 for growth inhibition of human MDA-MB-231 cells; format: functional

IC50 [1] [µM]	Drug uptake [2] [nmol/mg/min]	Drug uptake [3] [nmol/mg/min]	IC50 [4] [µM]	Drug uptake [5] [nmol/mg/min]	Drug uptake [6] [nmol/mg/min]	inhibition [9] [%]	Activity [10]	Activity [11]	half-life at 200 µM [12] [min]	half-life at 200 µM [13] [min]	half-life at 300 µM (thymidine phosphorylase) [min]	half-life [14] [min]	half-life [15] [min]	half-life [16] [min]	Compound	Ratio [7]	Ratio [8]	RatioGI50 (ZR-75-1)	RatioGI50 (MIA PaCa-2)	RatioGI50 (MDA-MB-231)
1130	2.12	0.35	11500	< 0.04	< 0.04	50	Active	Active	258	114	256	12.3	20.1	17.3	N[C@@H](CCC(=O)OC[C@H]1O[C@@H](n2cc(F)c(=O)[nH]c2=O)C[C@@H]1O)C(=O)O	6.23	1	7	7	7
1840	1.04	0.28	13000	< 0.04	< 0.04	–	–	–	183	97.4	289	7.9	10.2	8.3	N[C@@H](CCC(=O)O[C@H]1C[C@H](n2cc(F)c(=O)[nH]c2=O)O[C@@H]1CO)C(=O)O	3.71	1	7	7	7
2650	0.78	0.32	–	< 0.04	< 0.04	–	–	–	109	67.9	235	14.3	17.5	21.1	N[C@@H](CCC(=O)OC[C@H]1O[C@@H](n2cc(F)c(=O)[nH]c2=O)C[C@@H]1OC(=O)CC[C@H](N)C(=O)O)C(=O)O	2.44	1	7	7	7

The remaining lines, values behind:

Compound	IC50 [1] [µM]	Drug uptake [2] [nmol/mg/min]	Drug uptake [3] [nmol/mg/min]	IC50 [4] [µM]	Drug uptake [5] [nmol/mg/min]	Drug uptake [6] [nmol/mg/min]	inhibition [9] [%]	Activity [10]	Activity [11]	half-life at 200 µM [12] [min]	half-life at 200 µM [13] [min]	half-life at 300 µM (thymidine phosphorylase) [min]	half-life [14] [min]	half-life [15] [min]	half-life [16] [min]	Ratio [7]	Ratio [8]	RatioGI50 (ZR-75-1)	RatioGI50 (MIA PaCa-2)	RatioGI50 (MDA-MB-231)
CC(C)[C@H](N)C(=O)OC[C@H]1O[C@@H](n2cc(F)c(=O)[nH]c2=O)C[C@@H]1O	980	2.34	0.31	1120	1.78	0.41	50	Active	Active	203	78.5	408	16.4	11.3	15.3	7.55	4.34	7	7	7
N[C@@H](CC(=O)O[C@H]1C[C@H](n2cc(F)c(=O)[nH]c2=O)O[C@@H]1CO)C(=O)O	1570	1.89	0.36	13900	< 0.04	< 0.04	–	–	–	179	124	278	24.2	32.1	19.3	5.25	1	7	7	7
CC(C)[C@H](N)C(=O)OC[C@H]1O[C@@H](n2cc(F)c(=O)[nH]c2=O)C[C@@H]1OC(=O)[C@@H](N)C(C)C	2010	1.03	0.37	2240	1.11	0.44	–	–	–	106	37.8	257	6.7	8.4	10.1	2.78	2.63	7	7	7
CC(C)[C@H](N)C(=O)O[C@H]1C[C@H](n2cc(F)c(=O)[nH]c2=O)O[C@@H]1CO	1630	1.56	0.39	1890	1.23	0.43	–	–	–	187	65.3	368	9.2	12.2	14.9	4	2.86	7	7	7
N[C@@H](CC(=O)OC[C@H]1O[C@@H](n2cc(F)c(=O)[nH]c2=O)C[C@@H]1OC(=O)C[C@H](N)C(=O)O)C(=O)O	2980	1.12	0.34	–	< 0.04	< 0.04	–	–	–	98.2	56.1	301	16.2	11.3	9.3	3.29	1	7	7	7
